{"source": "patent US10765616B2", "about": "“Oral formulation of polyglucosamine derivatives in combination with a non-fermentable sugar” (SYNEDGEN, INC., priority 2013, dated 2020)", "key": {"S. mutans biofilms [1]": {"tested_on": "S. mutans biofilms", "test": "MBEC peg biofilm biomass reduction assay of active ingredients (twice daily, OD595)", "assay_type": "cell-based, Streptococcus mutans", "settings": "2 minutes, 8-hour interval, 32 μg/mL PAAG, 1.5% hydrogen peroxide, alcohol, lactoferrin, chlorhexidine", "description": "The S. mutans biofilms were grown according to MBEC™ for High-throughput Screening methods (Innovotech) on a hydroxyapatite-coated peg lid placed in trough containing BHI media supplemented with 1% sucrose rocking for 72 hours. The pegs were treated twice daily with PAAG (30% functionalized, 86 kD) active ingredients (FIG. 9) at 8-hour intervals for 2-minutes. The biofilms were rinsed in PBS, and the pegs were removed and placed into 200 μl 95% ethanol each for 2 minutes to fix the biofilms. The MBEC-HTP biofilms were stained with 150 μl of 3% Crystal Violet dye each for 2 minutes, and rinsed five times with PBS. It was noted that chlorhexidine appears to “fix” the biofilm to the pegs. The bacteria may or may not be viable because OD measured biofilm biomass, not viable CFUs. The stained and rinsed MBEC-HTP biofilms were then placed in 150 μL ethanol for 1-minute to remove the dye/biofilm. Then 100 μL of the ethanol and dyed biofilm suspension was placed into a 96-well plate and the OD595 was measured to quantify the remaining stained biofilm biomass."}, "S. mutans biofilms [2]": {"tested_on": "S. mutans biofilms", "test": "Comparative biofilm reduction study of oral rinses and active ingredients (MBEC pegs)", "assay_type": "cell-based, Streptococcus mutans", "settings": "72 h S. mutans biofilms, treated 2 minutes twice (6-hour interval), vs water control", "description": "Biofilms of S. mutans were grown on hydroxyapatite-coated pegs according to MBEC Assay™ methods for 72 hours, and then treated with the oral rinses or a water control. The corresponding active ingredients were also evaluated. The biofilms were exposed for 2-minutes, twice in a 6-hour interval to evaluate biofilm removal. Following treatment, biofilms were rinsed, fixed, and stained with 0.4% Crystal Violet, and remaining biofilm was quantitated via CFU or OD595 (Beenken and Smeltzer, 2003). Biofilms were analyzed in triplicate in at least 3 independent assays. Ratios were averaged from all assays and the percent biofilm reduced and standard error compared to water control is shown."}, "A431 epithelial cells": {"tested_on": "A431 epithelial cells", "description": "Human epithelial cell monolayers of A431 (ATCC CRL-1555) were seeded in tissue culture treated 96-well plates at a density of 2×10^4 cells/well in DMEM media supplemented with 10% FBS, 1% Penicillin-Streptomycin, and 1% Amphotericin B. Seeded cells were incubated at 37° C. with 5% CO2 for 48 hours. The media was removed and replaced with serum-free, antimicrobial-free media and rinsed one time for 30 seconds with PAAG Oral Formulation H, other oral products (Biotene, Corsodyl, Peroxyl, or Listerine), 32 μg/mL PAAG (30% functionalized, 86 kDa) and other active ingredients (0.029% lactoferrin, 0.2% chlorhexidine gluconate, 1.5% hydrogen peroxide, or 20% alcohol). Epithelial cell viability was determined by ATPLite Luminescence ATP Detection Assay System (PerkinElmer). Testing was done in duplicate.\nEpithelial cell viability was compared between PAAG and other oral active ingredients and oral rinse products. Human epithelial cell monolayers were rinsed once for 30 seconds with each treatment. Following treatment, the epithelial cells were evaluated with ATP LITE Luminecence assay that measured viability via ATP. The data was normalized to untreated cells to compare percent survival (FIG. 4). […] The cells were rinsed once with PAAG Oral Formulation H, other oral rinse products (Biotene, Corsodyl, Peroxyl, or Listerine), oral products active ingredients (0.0032% PAAG, 0.029% lactoferrin (LF), 0.2% chlorhexidine (CHG), 1.5% hydrogen peroxide, or 20% alcohol). PAAG Oral Formulation H contains sorbitol (17.5%), glycerin (10%), xylitol (2.5%), polysorbate 20 (1.5%), peppermint oil (0.2%), benzoic acid (0.3%), sodium fluoride (0.5%), and PAAG (0.0032%). Epithelial cell viability was determined by ATPLite Luminescence ATP Detection Assay System (Perkin Elmer) and compared to media rinsed cells."}, "S. mutans": {"tested_on": "S. mutans", "test": "PAAG and sorbitol combination bactericidal assay (viable plate counts)", "assay_type": "cell-based, Streptococcus mutans", "settings": "sorbitol 0-25% w/v, 30 minutes", "description": "A range of sorbitol concentrations (0-25% w/v) was mixed with a range of PAAG concentrations (4-32 μg/mL, 86 kDa, 30% functionalized). S. mutans was exposed to each for 30 minutes before being neutralized with D/E neutralization broth, then diluted and plated for measurement of viable plate counts (CFU)."}, "[3]": {"settings": "active ingredients at the concentration printed in the row or sentence"}}}
{"compound": "CCO", "note": "[Alcohol, alcohol]", "values": [{"measurement": "reduction in S. mutans biofilm biomass compared to water control", "setting": "S. mutans biofilms [1]", "value": "significant reduction"}, {"measurement": "Percent (%) Biomass Reduced", "setting": "S. mutans biofilms [2]; [3]", "value": "39.9 ± 3.9", "unit": "%"}, {"measurement": "Percent (%) Biomass Reduced", "setting": "S. mutans biofilms [2]; active ingredients at the concentration printed in the row or sentence, listed as alcohol", "value": "39.9±3.9", "unit": "%"}]}
{"compound": "[H]/N=C(\\N/C(=N/[H])NCCCCCCNC(=N)NC(=N)Nc1ccc(Cl)cc1)Nc1ccc(Cl)cc1", "note": "[Chlorhexidine, chlorhexidine gluconate]", "values": [{"measurement": "reduction in S. mutans biofilm biomass compared to water control", "setting": "S. mutans biofilms [1]", "value": "did not significantly reduce"}, {"measurement": "Percent (%) Biomass Reduced", "setting": "S. mutans biofilms [2]; [3]", "value": "17.1 ± 4.5", "unit": "%"}, {"measurement": "Percent (%) Biomass Reduced", "setting": "S. mutans biofilms [2]; active ingredients at the concentration printed in the row or sentence, listed as Chlorhexidine gluconate", "value": "17.1±4.5", "unit": "%"}]}
{"compound": "OO", "note": "[hydrogen peroxide]", "values": [{"measurement": "reduction in S. mutans biofilm biomass compared to water control", "setting": "S. mutans biofilms [1]", "value": "significant reduction"}, {"measurement": "epithelial cell viability", "setting": "A431 epithelial cells", "value": "maintain epithelial cell viability"}, {"measurement": "Percent (%) Biomass Reduced", "setting": "S. mutans biofilms [2]; active ingredients at the concentration given, listed as H2O2", "value": "36.9 ± 3.8", "unit": "%"}, {"measurement": "Percent (%) Biomass Reduced", "setting": "S. mutans biofilms [2]; [3]", "value": "36.9±3.8", "unit": "%"}]}
{"compound": "OC[C@@H](O)[C@@H](O)[C@H](O)[C@@H](O)CO", "note": "[sorbitol]", "values": [{"measurement": "effect of sorbitol alone on bacterial viability", "setting": "S. mutans", "value": "did not affect bacterial viability"}]}
{"compound": "poly (acetyl, arginyl) glucosamine [PAAG]", "values": [{"measurement": "cytotoxicity to epithelial cells compared to other oral rinse products", "setting": "A431 epithelial cells", "value": "least cytotoxic"}, {"measurement": "epithelial cell viability", "setting": "A431 epithelial cells", "value": "maintain epithelial cell viability"}]}
